Assay results reported in patent publication EP4813381A1, “PHARMACEUTICAL USE OF GUAIANE SESQUITERPENE DERIVATIVE” (Nanjing University Of Chinese Medicine, priority 2023, dated 2025).

Experiments:
[1] = system: MC903-induced atopic dermatitis (AD); assay: MC903-induced AD model on the dorsum of mice, Compound 1 ointment: skin thickness and dermatitis score; format: in vivo; design: Skin thickness: unit not given here; details: for inhibition rate (dorsal skin thickness): final day; for Dermatitis Score: back, score max 12; for Skin thickness: dorsal region, AD mice
Procedure: Weigh white petrolatum, light liquid paraffin, glyceryl monostearate, ethylparaben, and cetyl alcohol. Heat to 65 °C while stirring until dissolved. Slowly add the dissolved active pharmaceutical ingredient (API) while continuing to stir until uniformly mixed. Set aside. • (2) Aqueous Phase Preparation: […] Slowly add the aqueous phase to the oil phase while maintaining 65 °C, homogenize, and continue stirring for 30 min; • (4) Cooling: Stop heating, continue stirring, gradually reduce to room temperature, cool to form an ointment, and fill containers. […] Dissolve these substances in a small amount of propylene glycol, then place the resulting solution into the aforementioned pre-cooled blank ointment base. […] Establishment of the AD Model on the Dorsum of Mice and Drug Administration: […] Except for the Normal group, all other groups underwent AD modeling: 48 hours prior to the experiment, hair on the dorsal neck region was meticulously removed using clippers and depilatory cream. […] Model and control group mice received daily application of blank ointment. Twenty-four hours after completing the 14-day modeling period, photographs of skin lesions were taken, and skin lesion and blood samples were collected. Skin Lesion Severity Score: […] Statistical analysis was performed on the data.

[2] = system: Human keratinocytes (Hacat); assay: Hyaluronic acid and hyaluronidase levels in UVB-irradiated human keratinocytes; format: cell-based; details: UVB 90 mJ/cm^2, 24 h
Procedure: Human keratinocytes (Hacat) were cultured routinely in DMEM medium containing 10% FBS within a 5% CO2 incubator.

[3] = system: MC903-induced atopic dermatitis (AD); assay: MC903-induced ear atopic dermatitis mouse model, Compound 1 ointment: ear thickness and dermatitis score; format: in vivo, mice; details: for inhibition rate (ear thickness): final day; for Dermatitis Score: ear, score max 12
Procedure: Weigh white petrolatum, light liquid paraffin, glyceryl monostearate, ethylparaben, and cetyl alcohol. Heat to 65 °C while stirring until dissolved. Slowly add the dissolved active pharmaceutical ingredient (API) while continuing to stir until uniformly mixed. Set aside. • (2) Aqueous Phase Preparation: […] Slowly add the aqueous phase to the oil phase while maintaining 65 °C, homogenize, and continue stirring for 30 min; • (4) Cooling: Stop heating, continue stirring, gradually reduce to room temperature, cool to form an ointment, and fill containers. […] Dissolve these substances in a small amount of propylene glycol, then place the resulting solution into the aforementioned pre-cooled blank ointment base. […] Skin Lesion Severity Score: […] Statistical analysis was performed on the data.

[4] = system: renal injury markers (Ngal, Havcr1), inflammatory cytokines (TNF, IL-6, IL-1), fibrosis-related factors (α-Sma, Col1a1, Tgfb1); assay: Folic acid acute kidney injury model in mice: Q-PCR of kidney tissue; format: in vivo, C57BL/6 mice; design: Tnf / Il1 / Il6: unit not given here; details: kidney mRNA, acute model (FA)
Hepa1-6 cells = format: in vivo; details: Hepa1-6 xenograft, male C57BL/6 mice, compound 20 alone, dose 1 (head µmol/kg/day; text 1 mg/kg/day), intraperitoneal daily, 2 weeks
Procedure: Hepa1-6 cells were cultured and expanded in vitro. An appropriate amount of cells in the logarithmic growth phase was resuspended in a mixture of serum-free DMEM medium and Matrigel (1:1). Under sterile conditions, prepare a cell suspension at 2.5 × 10^6 cells/100 µL. Using a syringe, inject 100 µL of the cell suspension subcutaneously into the left forelimb axilla of male C57BL/6 mice. […]. […] During the treatment period, mouse body weight and tumor diameter were measured daily. At the end of the experiment, mice were euthanized by cervical dislocation, and tumors were removed and weighed. Tumor volume (TV) was calculated using the formula: TV = 1/2 × a × b^2, where a represents the longest diameter of the tumor and b represents the shortest diameter.

In the case of `C=C1C(=O)O[C@@H]2[C@@H]3[C@]4(CC[C@@]3(C)O)C[C@]4(C)CC[C@@H]12` [compound 1], the “inhibition rate (dorsal skin thickness)” value ([1]; 0.01% Compound 1 ointment) was 66%, the “inhibition rate (dorsal skin thickness)” value ([1]; 0.1% Compound 1 ointment) was 72% and the “inhibition rate (dorsal skin thickness)” value ([1]; 1% Compound 1 ointment) was 83%. The “Dermatitis Score” value ([1]; 0.01% ointment for 7 days) was 3.67±0.33, the “Dermatitis Score” value ([1]; 0.1% ointment for 7 days) was 2.50±0.22 and the “Dermatitis Score” value ([1]; 1% ointment for 7 days) was 2.17±0.17. It also gave a Skin thickness ([1]; 0.01% ointment) of 36.06±0.91, a Skin thickness ([1]; 0.1% ointment) of 33.11±0.31 and a Skin thickness ([1]; 1% ointment) of 29.56±0.25. For the same compound, the Hyaluronic acid ([2]; 0.01 µM) was 8.73 ± 1.62 ng/mL, the Hyaluronidase ([2]; 0.01 µM) was 124.41 ± 16.49 ng/mL and the Hyaluronic acid ([2]; 0.1 µM) was 14.17 ± 1.30 ng/mL. The Hyaluronidase ([2]; 0.1 µM) was 88.07 ± 10.17 ng/mL, the Hyaluronic acid ([2]; 1 µM) was 19.51 ± 1.87 ng/mL and the Hyaluronidase ([2]; 1 µM) was 56.03 ± 5.53 ng/mL. The Hyaluronic acid ([2]; 10 µM) was 24.82 ± 1.13 ng/mL, the Hyaluronidase ([2]; 10 µM) was 37.73 ± 11.49 ng/mL and the “inhibition rate (ear thickness)” value ([3]; 0.01% Compound 1 ointment) was 71%. It also gave an ear thickness ([3]; 0.01% ointment, Day 1) of 0.14±0.00 mm, an ear thickness ([3]; 0.01% ointment, Day 3) of 0.17±0.00 mm and an ear thickness ([3]; 0.01% ointment, Day 5) of 0.21±0.00 mm. The ear thickness ([3]; 0.01% ointment, Day 7) was 0.22±0.00 mm, the ear thickness ([3]; 0.01% ointment, Day 8) was 0.23±0.01 mm and the ear thickness ([3]; 0.01% ointment, Day 9) was 0.23±0.01 mm. For the same compound, the ear thickness ([3]; 0.01% ointment, Day 10) was 0.25±0.00 mm, the ear thickness ([3]; 0.01% ointment, Day 11) was 0.26±0.01 mm and the ear thickness ([3]; 0.01% ointment, Day 12) was 0.26±0.01 mm. The ear thickness ([3]; 0.01% ointment, Day 13) was 0.22±0.01 mm, the ear thickness ([3]; 0.01% ointment, Day 14) was 0.21±0.01 mm and the “inhibition rate (ear thickness)” value ([3]; 0.1% Compound 1 ointment) was 71%. For the same compound, the ear thickness ([3]; 0.1% ointment, Day 1) was 0.14±0.00 mm, the ear thickness ([3]; 0.1% ointment, Day 3) was 0.17±0.00 mm and the ear thickness ([3]; 0.1% ointment, Day 5) was 0.21±0.00 mm. The ear thickness ([3]; 0.1% ointment, Day 7) was 0.21±0.00 mm, the ear thickness ([3]; 0.1% ointment, Day 8) was 0.23±0.00 mm and the ear thickness ([3]; 0.1% ointment, Day 9) was 0.23±0.00 mm. For the same compound, the ear thickness ([3]; 0.1% ointment, Day 10) was 0.23±0.00 mm, the ear thickness ([3]; 0.1% ointment, Day 11) was 0.24±0.01 mm and the ear thickness ([3]; 0.1% ointment, Day 12) was 0.24±0.01 mm. The ear thickness ([3]; 0.1% ointment, Day 13) was 0.21±0.01 mm, the ear thickness ([3]; 0.1% ointment, Day 14) was 0.21±0.01 mm and the “inhibition rate (ear thickness)” value ([3]; 1% Compound 1 ointment) was 80%. It also gave an ear thickness ([3]; 1% ointment, Day 1) of 0.15±0.00 mm, an ear thickness ([3]; 1% ointment, Day 3) of 0.17±0.00 mm and an ear thickness ([3]; 1% ointment, Day 5) of 0.21±0.00 mm. It also gave an ear thickness ([3]; 1% ointment, Day 7) of 0.22±0.01 mm, an ear thickness ([3]; 1% ointment, Day 8) of 0.22±0.01 mm and an ear thickness ([3]; 1% ointment, Day 9) of 0.23±0.01 mm. The ear thickness ([3]; 1% ointment, Day 10) was 0.23±0.01 mm, the ear thickness ([3]; 1% ointment, Day 11) was 0.24±0.00 mm and the ear thickness ([3]; 1% ointment, Day 12) was 0.23±0.01 mm. For the same compound, the ear thickness ([3]; 1% ointment, Day 13) was 0.20±0.00 mm, the ear thickness ([3]; 1% ointment, Day 14) was 0.19±0.00 mm and the “Dermatitis Score” value ([3]; 0.01% ointment for 7 days) was 3.50±0.22. The “Dermatitis Score” value ([3]; 0.1% ointment for 7 days) was 2.67±0.21, the “Dermatitis Score” value ([3]; 1% ointment for 7 days) was 2.33±0.33 and the Col1a1 ([4]; oral 0.1 mg/kg) was 1.64±0.16. It also gave a Havcr1 ([4]; oral 0.1 mg/kg) of 175.10±17.63, an Il1 ([4]; oral 0.1 mg/kg) of 2.62±0.56 and an Il6 ([4]; oral 0.1 mg/kg) of 8.02±0.77. The Ngal ([4]; oral 0.1 mg/kg) was 30.52±5.05, the Tgfb1 ([4]; oral 0.1 mg/kg) was 1.96±0.17 and the Tnf ([4]; oral 0.1 mg/kg) was 2.89±0.59. It also gave a α-Sma ([4]; oral 0.1 mg/kg) of 1.82±0.19, a Col1a1 ([4]; oral 1 mg/kg) of 1.32±0.15 and a Havcr1 ([4]; oral 1 mg/kg) of 99.99±7.98. For the same compound, the Il1 ([4]; oral 1 mg/kg) was 1.72±0.45, the Il6 ([4]; oral 1 mg/kg) was 3.98±0.59 and the Ngal ([4]; oral 1 mg/kg) was 20.17±2.21. For the same compound, the Tgfb1 ([4]; oral 1 mg/kg) was 1.36±0.10, the Tnf ([4]; oral 1 mg/kg) was 2.76±0.71 and the α-Sma ([4]; oral 1 mg/kg) was 1.42±0.11.

With `CN(C)C[C@@H]1C(=O)O[C@H]2[C@H]1CC[C@@]1(C)C[C@]13CC[C@@](C)(O)[C@H]23` [compound 20] the “Tumor Inhibition Rate (%)” value (Hepa1-6 cells) was 72.37% and the “Tumor weight” value (Hepa1-6 cells) was 0.12 ± 0.09 g.
